Measured values reported in publication PMC11240878, “Synthesis, enzyme inhibition assay, and molecular modeling study of novel pyrazolines linked to 4-methylsulfonylphenyl scaffold: antitumor activity and cell cycle analysis” (RSC Advances, 2024).

How the values were obtained:
MDA-MB-435 = assay: NCI single-dose GI%, melanoma; type: cell-based, human; conditions: MDA-MB-435, melanoma; 10.0 μM in one dose
A498 = assay: NCI single-dose GI%, renal; type: cell-based, human; conditions: 10.0 μM in one dose
HS 578T = assay: NCI single-dose GI%, breast; type: cell-based, human; conditions: 10.0 μM in one dose
NCI-H226 = assay: NCI single-dose GI%, NSC lung; type: cell-based, human; conditions: 10.0 μM in one dose
RXF 393 = assay: NCI single-dose GI%, renal; type: cell-based, human; conditions: RXF 393, renal; 10.0 μM in one dose
SN12C = assay: NCI single-dose GI%, renal; type: cell-based, human; conditions: 10.0 μM in one dose
DU-145 = assay: NCI single-dose GI%, prostate; type: cell-based, human; conditions: DU-145, prostate; 10.0 μM in one dose
[1] = test system: breast adenocarcinoma MCF-7; conditions: human, 48 h

SMILES | GI% (MDA-MB-435) [%] | GI% (A498) [%] | GI% (HS 578T) [%] | GI% (NCI-H226) [%] | GI% (RXF 393) [%] | GI% (SN12C) [%] | GI% (DU-145) [%] | IC50 [1] [µM]
Cc1ccc(C2=NN(C(=O)c3ccc(S(C)(=O)=O)cc3)C(c3ccc(C)cc3)C2)cc1 (centres unmarked) [Compound 18g, (3,5-Bis(4-tolyl)-4,5-dihydro-1H-pyrazol-1-yl)(4-(methylsulfonyl)phenyl)methanone] | 76 | 16 | 15 |  |  |  |  | 
CS(=O)(=O)c1ccc(C(=O)N2N=C(c3ccccc3)CC2c2ccccc2O)cc1 (centres unmarked) [Compound 18h, (5-(2-Hydroxyphenyl)-3-phenyl-4,5-dihydro-1H-pyrazol-1-yl)(4-(methylsulfonyl)phenyl)methanone] |  |  |  | 15 | 29 | 17 | 19 | 12.5 ± 0.55
